Source: ChEMBL document CHEMBL1201862, “PubChem BioAssay data set” (2004)
Counter-ions that a name gives are not always drawn. The source made the active and inactive calls. For most assays here, no stated cut-off is given here; in the data, actives have a measured EC50 and inactives only a lower limit.

Experiments:
Streptococcus = test: Group A Streptococcus viability loss, dose response, counter-screen for streptokinase expression inhibitor project, luminescence, BacTiterGlo (AID 1915); type: functional, organism-based;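 further: potency for reduction of bacterial viability or growth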
[1] = Luminescence Cell-Based Dose Response HTS to Identify Activators of Luciferase Translation or Activity in H4 […] Cells. [Related pubchem assays: 1829 (Project Summary), 1814 (Primary HTS)]; type: functional
[2] = HEp-2 cell cytotoxicity, dose response, cytotoxicity control for RSV inhibitor project, HTS (AID 2410); type: functional; settings: human respiratory syncytial virus
Streptokinase A = molecular target: T1, Streptokinase A (Streptococcus pyogenes serotype M1, UniProt P10520); test: S. pyogenes streptokinase expression inhibitors, potency, dose response, plasminogen activation absorbance, OD405 (AID 1914); type: functional, Streptococcus pyogenes M1 GAS;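 further: secreted streptokinase activity via plasminogen activation per viability signal from cell pellet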
T1 sequence (P10520 whole entry): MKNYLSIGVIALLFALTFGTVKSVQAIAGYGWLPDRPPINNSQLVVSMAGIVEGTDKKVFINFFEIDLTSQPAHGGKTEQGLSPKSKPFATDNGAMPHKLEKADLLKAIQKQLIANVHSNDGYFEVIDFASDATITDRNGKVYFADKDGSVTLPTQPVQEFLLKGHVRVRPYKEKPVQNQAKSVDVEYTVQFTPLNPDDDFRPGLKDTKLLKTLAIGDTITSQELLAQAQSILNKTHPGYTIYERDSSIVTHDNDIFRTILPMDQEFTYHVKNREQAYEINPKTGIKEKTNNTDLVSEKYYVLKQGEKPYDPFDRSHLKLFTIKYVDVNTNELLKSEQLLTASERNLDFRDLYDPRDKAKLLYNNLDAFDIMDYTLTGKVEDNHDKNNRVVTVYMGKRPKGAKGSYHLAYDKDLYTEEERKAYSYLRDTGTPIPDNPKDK

[3] = tested on: Streptococcus sp. 'group A'; test: growth inhibition of control SK(-) GAS strain, dose response, counter-screen for streptokinase expression inhibitor project, luminescence, kanamycin, BacTiterGlo, confirmation (AID 1900); type: functional, organism-based
[4] = molecular target: T2, Corticotropin-releasing factor receptor 2/Corticotropin-releasing factor-binding protein (Homo sapiens, UniProt P24387+Q13324); test: activators of CRF receptor 2 with binding protein – uHTS hits, confirmation (AID 602473); type: functional; settings: read-out: EC50_Mean
T2 sequence (Q13324 whole entry): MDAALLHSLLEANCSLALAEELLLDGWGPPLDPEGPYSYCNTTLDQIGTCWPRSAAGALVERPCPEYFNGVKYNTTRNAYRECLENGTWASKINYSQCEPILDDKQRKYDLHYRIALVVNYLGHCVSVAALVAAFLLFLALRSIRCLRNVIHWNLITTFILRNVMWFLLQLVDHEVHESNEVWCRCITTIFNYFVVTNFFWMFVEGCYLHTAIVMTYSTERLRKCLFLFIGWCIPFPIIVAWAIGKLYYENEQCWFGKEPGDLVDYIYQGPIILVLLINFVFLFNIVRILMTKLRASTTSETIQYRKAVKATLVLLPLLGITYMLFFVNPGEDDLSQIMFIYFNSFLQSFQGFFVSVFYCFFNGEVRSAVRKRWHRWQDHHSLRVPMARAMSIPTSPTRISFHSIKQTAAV
T2 sequence (P24387 whole entry): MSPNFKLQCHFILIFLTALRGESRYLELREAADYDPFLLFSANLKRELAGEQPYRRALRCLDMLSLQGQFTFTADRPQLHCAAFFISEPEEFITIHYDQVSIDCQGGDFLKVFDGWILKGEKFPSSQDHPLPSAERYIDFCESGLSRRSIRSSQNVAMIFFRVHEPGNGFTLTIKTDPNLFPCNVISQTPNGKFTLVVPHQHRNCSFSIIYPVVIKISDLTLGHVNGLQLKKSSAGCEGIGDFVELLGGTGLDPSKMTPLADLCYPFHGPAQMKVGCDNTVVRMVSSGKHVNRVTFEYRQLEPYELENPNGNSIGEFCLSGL

[5] = molecular target: T3, Rac GTPase-activating protein 1 (Homo sapiens, UniProt Q9H0H5); test: MgcRacGAP GTPase-activating activity inhibitors, confirmation, biochemical, ADP Hunter fluorescence, primary and confirmatory (AID 624330); type: functional
T3 sequence (Q9H0H5 whole entry): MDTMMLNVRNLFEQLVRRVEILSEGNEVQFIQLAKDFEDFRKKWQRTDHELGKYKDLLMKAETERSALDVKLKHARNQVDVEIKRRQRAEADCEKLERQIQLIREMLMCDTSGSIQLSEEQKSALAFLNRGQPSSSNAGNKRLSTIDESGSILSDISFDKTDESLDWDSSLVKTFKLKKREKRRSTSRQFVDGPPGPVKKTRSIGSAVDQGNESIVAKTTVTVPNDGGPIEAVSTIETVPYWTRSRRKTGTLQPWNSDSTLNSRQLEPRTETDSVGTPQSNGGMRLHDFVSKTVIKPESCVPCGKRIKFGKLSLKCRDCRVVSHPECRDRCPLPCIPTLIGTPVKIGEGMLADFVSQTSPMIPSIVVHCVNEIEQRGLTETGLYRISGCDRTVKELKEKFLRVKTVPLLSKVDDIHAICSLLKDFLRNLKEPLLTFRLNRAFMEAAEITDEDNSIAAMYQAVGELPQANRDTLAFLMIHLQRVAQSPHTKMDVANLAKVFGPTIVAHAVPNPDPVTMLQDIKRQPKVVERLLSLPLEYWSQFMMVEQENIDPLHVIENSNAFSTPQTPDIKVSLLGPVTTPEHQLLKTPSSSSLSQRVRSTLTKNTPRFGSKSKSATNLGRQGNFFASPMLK

[6] = molecular target: T4, Heat shock factor protein 1 (Mus musculus, UniProt P38532); test: inhibition of MG132-induced HSE-luciferase signal, confirmation, cell-based, NIH3T3, luminescence, dose retest (AID 2382); type: functional;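 further: NIH3T3 fibroblasts with HSF1-driven luciferase reporter stressed by proteasome inhibitor MG132; luminescence from HSF1-driven luciferase expression after 8 hours of MG132 stress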
T4 sequence (P38532 whole entry): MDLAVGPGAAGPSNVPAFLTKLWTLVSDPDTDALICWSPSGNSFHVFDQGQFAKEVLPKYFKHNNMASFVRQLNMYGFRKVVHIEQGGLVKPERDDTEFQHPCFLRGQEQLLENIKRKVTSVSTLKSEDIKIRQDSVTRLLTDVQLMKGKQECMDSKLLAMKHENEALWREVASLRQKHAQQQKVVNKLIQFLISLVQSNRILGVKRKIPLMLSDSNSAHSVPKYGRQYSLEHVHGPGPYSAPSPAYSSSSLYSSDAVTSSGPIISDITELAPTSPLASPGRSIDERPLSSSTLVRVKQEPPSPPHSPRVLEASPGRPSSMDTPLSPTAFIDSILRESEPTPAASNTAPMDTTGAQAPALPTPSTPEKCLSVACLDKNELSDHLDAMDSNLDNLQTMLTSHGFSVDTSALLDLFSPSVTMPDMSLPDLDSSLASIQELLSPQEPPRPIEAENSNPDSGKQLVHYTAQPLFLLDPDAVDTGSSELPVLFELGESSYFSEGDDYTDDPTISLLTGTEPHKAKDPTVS

[7] = Luminescence Cell-Based Dose Retest to Confirm Inhibitors of Cancer Stem Cells. [Related pubchem assays (depositor defined):AID2717, AID2721]; type: functional; settings: Homo sapiens
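Wherever AC50 is given: cells exposed to compound for roughly 70 hours or longer before luminescence read.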

CC1Oc2cc3oc4c(O)c5c(cc4c(=O)c3c(O)c2C1(C)C)C=CC(C)(C)O5 (stereo unspecified) [GERONTOXANTHONE A]
EC50 (Streptococcus): 25.9 µM (active) | EC50 [1]: 2.13 µM (active) | CC50 [2]: 14.9 µM (active) | EC50 (Streptokinase A): 10.7 µM (active) | EC50 [3]: 1.11 µM (active)

Cc1ccc(NC(=O)CC2C(=O)N(Cc3ccccc3)C(=S)N2NC(=O)c2ccccc2)c(C)c1 (stereo unspecified)
CC50 [2]: > 50 µM (active)

CCOc1ccc(NS(=O)(=O)c2ccc(C(=O)NCC(c3cccs3)N3CCOCC3)cc2)cc1 (stereo unspecified)
EC50 [4]: 5.04 µM (active)

Cn1c(CNC(=O)CNC(=O)c2ccc(F)cc2)cc(=O)n(C)c1=O
EC50 (Streptococcus): > 150 µM (not active) | EC50 (Streptokinase A): > 150 µM (not active) | EC50 [3]: > 150 µM (not active)

CCOc1ccc(/C=N/NC(=S)NC2CC3C=CC2C3)cc1 (stereo unspecified)
EC50 (Streptococcus): > 150 µM (not active) | EC50 (Streptokinase A): > 150 µM (not active) | EC50 [3]: > 150 µM (not active)

O=C(CNC1CC1)Nc1cc(C(F)(F)F)ccc1Cl
IC50 [5]: 123 µM (active)

O=C(OCCN1CCN(c2ncc(C(F)(F)F)cc2Cl)CC1)c1ccc(Cl)cc1
EC50 [6]: > 195 µM (not active)

CCOC(=O)c1cc(-c2ccccc2)sc1NC(=O)C(C)OC(=O)c1ccncc1 (stereo unspecified)
CC50 [2]: 47.6 µM (active)

NC(=O)Cc1ccc(C(=O)c2ccc(Cl)cc2)s1
EC50 [6]: > 195 µM (not active)

Cc1ccsc1/C=C/C1=NCCCN1C [MORANTEL TARTRATE]
EC50 [6]: > 195 µM (not active)

COc1ccc(NC(=O)CCN2CCN(S(=O)(=O)c3ccc(OC)cc3)CC2)cc1
EC50 [6]: > 195 µM (not active)

Cc1ccc(NC(=O)[C@@H](C)NC(=O)[C@@H]2Cc3ccccc3CN2)cc1
EC50 [6]: > 195 µM (not active)

CC(C)(C)Cc1nnc(NS(=O)(=O)c2ccc(F)cc2)s1
EC50 [6]: > 195 µM (not active)

CCOC(=O)c1sc(NC(=O)c2ccc(S(=O)(=O)N3CCCCCC3)cc2)nc1-c1ccccc1
CC50 [2]: 7.07 µM (active)

CCO[C@H]1OC(C(=O)NCc2ccccc2)=C[C@@H](c2ccc(Br)cc2)[C@@H]1CCCO
CC50 [2]: 22 µM (active)

CCCN1CCC(=O)N([C@H](CSc2ccccc2)Cc2ccccc2)CC1
EC50 [6]: > 195 µM (not active)

Cn1c(=O)c2ccccc2n(Cc2ccccc2Cl)c1=O
EC50 [6]: > 195 µM (not active)

COc1nc(-c2ccc(C)cc2)ccc1-c1noc(-c2cccnc2)n1
CC50 [2]: 31.1 µM (active)

Cn1c(=O)[nH]c(=O)c2c1[nH]c(=S)n2Cc1ccc(Cl)cc1
IC50 [5]: 31.7 µM (active)

N#C/C(=C\c1c(Cl)cccc1Cl)c1nc2ccccc2[nH]1
CC50 [2]: 20.3 µM (active)

O=C(NC(=S)Nc1ccc(F)cc1)c1ccc2c(c1)OCCO2
EC50 [4]: > 53 µM (inactive) | EC50 [6]: > 195 µM (not active)

CC(=O)NC(Cc1ccccc1)C(=O)Oc1ccc2ccccc2c1 (stereo unspecified)
IC50 [5]: 39.7 µM (active)

Cc1cc(N/N=C/c2ccccc2Cl)nc(NCc2ccccc2)n1
AC50 [7]: 3.88 µM (active)

c1cncc(-c2nnc(SCc3nc4ccccc4[nH]3)o2)c1
EC50 [6]: 126 µM (active)

Cc1cc(F)ccc1S(=O)(=O)NCC1CC2CCC1C2 (stereo unspecified)
EC50 [4]: > 53 µM (inactive)

Cc1cccc(N2CCC(/N=C/N(C)C)=N2)c1
IC50 [5]: 29.2 µM (active)

COc1ccc(C2NS(=O)(=O)N=C2N)cc1 (stereo unspecified)
EC50 [6]: > 195 µM (not active)

Clc1ccc(/C=C/c2nc(Cl)c(-c3ccc(Cl)cc3)c(Cl)n2)cc1
EC50 (Streptococcus): > 150 µM (not active) | EC50 (Streptokinase A): 10 µM (active) | EC50 [3]: 33 µM (active)

C=CCn1/c(=N/C(=O)C2COc3ccccc3O2)sc2cccc(OC)c21 (stereo unspecified)
CC50 [2]: 18.4 µM (active)

COc1ccc2oc(C(=O)OCC(=O)NC3(C#N)CCCC3)c(C)c2c1
EC50 (Streptococcus): > 150 µM (not active) | EC50 (Streptokinase A): > 150 µM (not active) | EC50 [3]: 57.9 µM (active)

O=C(c1ccc(F)cc1)N1CCN(c2cc(N3CCCCC3)c(F)cc2[N+](=O)[O-])CC1
CC50 [2]: 16.6 µM (active)

COC(=O)C1=C(C)N(CCCC(=O)O)C(=O)NC1c1ccc(C#N)cc1 (stereo unspecified)
EC50 [6]: > 195 µM (not active)

Cc1ccccc1OCC(=O)NCCS(=O)(=O)N1CCN(c2ccc(F)cc2)CC1
CC50 [2]: 38.1 µM (active)

CCc1nc(NCCO)c(C#N)c2c1CCCC2
CC50 [2]: 30.6 µM (active)

Nc1nc(CN2CCN(c3ccc(F)cc3)CC2)nc(N2CCCc3ccccc32)n1
EC50 (Streptococcus): > 150 µM (not active) | EC50 (Streptokinase A): > 150 µM (not active) | EC50 [3]: 2.01 µM (active)

COc1cc(OC)c(C(=O)Nc2ccc(N(C)C)cc2)cc1OC
IC50 [5]: 22.1 µM (active)

COc1cc(/C(C)=N/N2CCN(c3ccccc3OC)CC2)ccc1O
IC50 [5]: 208 µM (active)

c1ccc(-c2nnc3sc(CN4CCc5ccccc54)cn23)cc1
AC50 [7]: 7.58 µM (active)

Cc1ccc(C(C)C)c(OCc2ccc(C(=O)N/N=C/c3ccc(O)c(O)c3)cc2)c1
AC50 [7]: 3.23 µM (active)

CCN(CC)c1ccc(C=C2SC(=S)NC2=O)cc1
EC50 [4]: 4.11 µM (active)

CC(C)N(C(=O)CSc1nc(COc2ccccc2)nc2ccccc12)C(C)C
CC50 [2]: 23.7 µM (active)

Cc1ccc(C(=O)NNC(=S)NC(=O)c2ccc(Cl)cc2Cl)cc1
EC50 (Streptococcus): 3.82 µM (active) | EC50 [4]: 2.78 µM (active) | EC50 [3]: 0.196 µM (active)

N#CCCn1nnc(-c2ccccc2F)n1
EC50 [6]: > 195 µM (not active)

Cc1ccc(C(=O)Nc2ccc(C(=O)O)cc2NC(=O)c2ccc(C)cc2)cc1
EC50 [6]: 14.7 µM (active)

CC(C)c1ccc(NC(=O)CNCC(c2ccccc2)N(C)C)cc1 (stereo unspecified)
IC50 [5]: 109 µM (active)

CCOC(=O)C1CCN(C(=O)COc2cc(C)c(Br)cc2C)CC1
EC50 [6]: > 195 µM (not active)

Cc1csc(Nc2ccc(Cl)cc2)[n+]1-c1ccc(Cl)cc1
EC50 (Streptococcus): > 150 µM (not active) | EC50 (Streptokinase A): 29.9 µM (active) | EC50 [3]: 12.9 µM (active)
